Measurements published in the NIST ThermoML archive (doi:10.1021/je030236t).
± gives the expanded uncertainty stated by the source.

Tests used:
[1] = Liquid
[2] = molar enthalpy of vaporization or sublimation; settings: 298.15 K; Liquid

CCCCCCCCCCCCCCCCCCCCCCCCCCCCCCCCCCCCCC [octatriacontane]
[1]
Settings | vapor or sublimation pressure [kPa]
298.15 K | 5.13e-15 ± 1.5e-15
310 K | 9.81e-14 ± 2.9e-14
320 K | 9.59e-13 ± 2.9e-13
330 K | 7.88e-12 ± 2.4e-12
340 K | 5.54e-11 ± 1.7e-11
350 K | 3.38e-10 ± 1e-10
360 K | 1.81e-09 ± 5.4e-10
370 K | 8.6e-09 ± 2.6e-09
380 K | 3.67e-08 ± 1.1e-08
390 K | 1.42e-07 ± 4.3e-08
400 K | 5.03e-07 ± 1.5e-07
410 K | 1.64e-06 ± 4.9e-07
420 K | 4.95e-06 ± 1.5e-06
430 K | 1.39e-05 ± 4.2e-06
440 K | 3.68e-05 ± 1.1e-05
450 K | 9.16e-05 ± 2.8e-05
460 K | 0.000216 ± 6.5e-05
470 K | 0.000484 ± 0.00015
480 K | 0.00104 ± 0.00031
490 K | 0.00212 ± 0.00064
500 K | 0.00417 ± 0.0013
510 K | 0.00791 ± 0.0024
520 K | 0.0145 ± 0.0044
530 K | 0.0257 ± 0.0077
540 K | 0.0441 ± 0.013
550 K | 0.0738 ± 0.022
560 K | 0.12 ± 0.036
570 K | 0.191 ± 0.057
580 K | 0.296 ± 0.089

Settings | molar enthalpy [kcal/mol]
[2] | 46 ± 2.34

CCCCCCCCCCCCCCCCCCCCCCCCCCCCCCCCCCC [pentatriacontane]
[1]
Settings | vapor or sublimation pressure [kPa]
298.15 K | 1.22e-13 ± 3.7e-14
310 K | 1.86e-12 ± 5.6e-13
320 K | 1.53e-11 ± 4.6e-12
330 K | 1.07e-10 ± 3.2e-11
340 K | 6.52e-10 ± 2e-10
350 K | 3.46e-09 ± 1e-09
360 K | 1.63e-08 ± 4.9e-09
370 K | 6.91e-08 ± 2.1e-08
380 K | 2.64e-07 ± 7.9e-08
390 K | 9.25e-07 ± 2.8e-07
400 K | 2.97e-06 ± 8.9e-07
410 K | 8.87e-06 ± 2.7e-06
420 K | 2.46e-05 ± 7.4e-06
430 K | 6.42e-05 ± 1.9e-05
440 K | 0.000158 ± 4.7e-05
450 K | 0.000367 ± 0.00011
460 K | 0.000812 ± 0.00024
470 K | 0.00171 ± 0.00051
480 K | 0.00346 ± 0.001
490 K | 0.00673 ± 0.002
500 K | 0.0126 ± 0.0038
510 K | 0.0228 ± 0.0068
520 K | 0.0399 ± 0.012
530 K | 0.0678 ± 0.02
540 K | 0.112 ± 0.034
550 K | 0.181 ± 0.054
560 K | 0.284 ± 0.085
570 K | 0.436 ± 0.13
580 K | 0.657 ± 0.2

Settings | molar enthalpy [kcal/mol]
[2] | 42.5 ± 2.2

CCCCCCCCCCCCCCCCCCCCCCCCCCCCCCCCCC [tetratriacontane]
[1]
Settings | vapor or sublimation pressure [kPa]
298.15 K | 3.83e-13 ± 7.7e-14
310 K | 5.39e-12 ± 1.1e-12
320 K | 4.16e-11 ± 8.3e-12
330 K | 2.75e-10 ± 5.5e-11
340 K | 1.58e-09 ± 3.2e-10
350 K | 7.97e-09 ± 1.6e-09
360 K | 3.59e-08 ± 7.2e-09
370 K | 1.45e-07 ± 2.9e-08
380 K | 5.34e-07 ± 1.1e-07
390 K | 1.8e-06 ± 3.6e-07
400 K | 5.58e-06 ± 1.1e-06
410 K | 1.61e-05 ± 3.2e-06
420 K | 4.34e-05 ± 8.7e-06
430 K | 0.00011 ± 2.2e-05
440 K | 0.000263 ± 5.3e-05
450 K | 0.000596 ± 0.00012
460 K | 0.00129 ± 0.00026
470 K | 0.00266 ± 0.00053
480 K | 0.00527 ± 0.001
490 K | 0.01 ± 0.002
500 K | 0.0184 ± 0.0037
510 K | 0.0328 ± 0.0066
520 K | 0.0564 ± 0.011
530 K | 0.0944 ± 0.019
540 K | 0.154 ± 0.031
550 K | 0.244 ± 0.049
560 K | 0.379 ± 0.076
570 K | 0.575 ± 0.12
580 K | 0.856 ± 0.17

Settings | molar enthalpy [kcal/mol]
[2] | 41.3 ± 2.1

CCCCCCCCCCCCCCCCCCCCCCCCCCCCCCCCC [tritriacontane]
[1]
Settings | vapor or sublimation pressure [kPa]
298.15 K | 1.19e-12 ± 2.4e-13
310 K | 1.54e-11 ± 3.1e-12
320 K | 1.11e-10 ± 2.2e-11
330 K | 6.95e-10 ± 1.4e-10
340 K | 3.79e-09 ± 7.6e-10
350 K | 1.82e-08 ± 3.6e-09
360 K | 7.83e-08 ± 1.6e-08
370 K | 3.04e-07 ± 6.1e-08
380 K | 1.07e-06 ± 2.1e-07
390 K | 3.49e-06 ± 7e-07
400 K | 1.05e-05 ± 2.1e-06
410 K | 2.92e-05 ± 5.8e-06
420 K | 7.65e-05 ± 1.5e-05
430 K | 0.000189 ± 3.8e-05
440 K | 0.000439 ± 8.8e-05
450 K | 0.000972 ± 0.00019
460 K | 0.00205 ± 0.00041
470 K | 0.00415 ± 0.00083
480 K | 0.00805 ± 0.0016
490 K | 0.015 ± 0.003
500 K | 0.0272 ± 0.0054
510 K | 0.0474 ± 0.0095
520 K | 0.0804 ± 0.016
530 K | 0.133 ± 0.027
540 K | 0.213 ± 0.043
550 K | 0.334 ± 0.067
560 K | 0.511 ± 0.1
570 K | 0.767 ± 0.15
580 K | 1.13 ± 0.23

Settings | molar enthalpy [kcal/mol]
[2] | 40.1 ± 2.06
